According to EPA's CvTdb concentration-time database:
Values belong to the compound of their own block, whether it stands above or below them.

Columns and labels:
Mouse [1] = assay: concentration in plasma after dosing; settings: 10 min; dosed: 2-Hydroxy-4-methoxybenzophenone; 50 mg/kg; iv; Male; B6C3F1
Mouse [2] = assay: concentration in plasma after dosing; settings: 3 h; dosed: 2-Hydroxy-4-methoxybenzophenone; 250 mg/kg; oral; Female; B6C3F1
Rat [3] = assay: concentration in plasma after dosing; settings: 10 min; dosed: alpha-Thujone; 25 mg/kg; oral; Male; Harlan Sprague Dawley
Rat [4] = assay: concentration in plasma after dosing; settings: 5 min; dosed: alpha-Thujone; 25 mg/kg; oral; Male; Harlan Sprague Dawley
Rat [5] = assay: concentration in plasma after dosing; settings: 0.5 h; dosed: alpha-Thujone; 25 mg/kg; oral; Male; Harlan Sprague Dawley
Rat [6] = assay: concentration in brain after dosing; settings: 10 min; dosed: alpha-Thujone; 25 mg/kg; oral; Male; Harlan Sprague Dawley
Rat [7] = assay: concentration in brain after dosing; settings: 0.5 h; dosed: alpha-Thujone; 50 mg/kg; oral; Female; Harlan Sprague Dawley
Rat [8] = assay: concentration in brain after dosing; settings: 3 h; dosed: alpha-Thujone; 50 mg/kg; oral; Male; Harlan Sprague Dawley
Rat [9] = assay: concentration in kidney after dosing; settings: 1200 h; dosed: Perfluorohexane-1-sulphonic acid – potassium salt; 16 mg/kg; oral; Male; Harlan Sprague Dawley
Rat [10] = assay: concentration in plasma after dosing; settings: dosed: Methyleugenol, 37 mg/kg, iv, Female, F344
Rat [11] = assay: concentration in plasma after dosing; settings: dosed: Methyleugenol, 37 mg/kg, iv, Male, F344
Rat [12] = assay: concentration in plasma after dosing; settings: dosed: Methyleugenol, 37 mg/kg, oral, Male, F344/N
Rat [13] = assay: concentration in plasma after dosing; settings: dosed: 2,4-Dichlorophenoxyacetic acid, 2.0 mg/kg, iv, Male, Sprague-Dawley
Mouse [14] = assay: concentration in plasma after dosing; settings: dosed: 2,4-Dichlorophenoxyacetic acid, 1.0 mg/kg, iv, Male, B6C3F1
Mouse [15] = assay: concentration in plasma after dosing; settings: dosed: 2,4-Dichlorophenoxyacetic acid, 1.0 mg/kg, iv, Male, B6C3F1; remark: listed apart in the source
Rat [16] = assay: concentration in plasma after dosing; settings: 6 h; dosed: Primidone; 130 mg/kg; oral; Female; F344
Rat [17] = assay: concentration in plasma after dosing; settings: 3 h; dosed: Primidone; 80 mg/kg; oral; Female; F344

SMILES: O=C(c1ccccc1)c1ccc(O)cc1O [2,4-Dihydroxybenzophenone]
- concentration in plasma (Mouse [1]): 3210 ng/mL
- concentration in plasma (Mouse [2]): 162 ng/mL

SMILES: CC(C)[C@]12CC(=O)[C@H](C)[C@H]1C2 [alpha-Thujone]
- concentration in plasma (Rat [3]): 408 ng/mL
- concentration in plasma (Rat [4]): 1170 ng/mL
- concentration in plasma (Rat [5]): 324 ng/mL
- concentration in brain (Rat [6]): 1080 ng/g
- concentration in brain (Rat [7]): 8580 ng/g
- concentration in brain (Rat [8]): 652 ng/g

SMILES: O=S(=O)([O-])C(F)(F)C(F)(F)C(F)(F)C(F)(F)C(F)(F)C(F)(F)F.[K+] [Perfluorohexane-1-sulphonic acid – potassium salt]
- concentration in kidney (Rat [9]): 4040 ng/g

SMILES: O=C(O)COc1ccc(Cl)cc1Cl [2,4-Dichlorophenoxyacetic acid]
- concentration in plasma (Rat [13]; 2.5 min): 28500 ng/mL
- concentration in plasma (Rat [13]; 10 min): 10400 ng/mL
- concentration in plasma (Rat [13]; 0.25 h): 14100 ng/mL
- concentration in plasma (Rat [13]; 0.5 h): 9550 ng/mL
- concentration in plasma (Rat [13]; 0.75 h): 5750 ng/mL
- concentration in plasma (Rat [13]; 2 h): 2070 ng/mL
- concentration in plasma (Rat [13]; 3 h): 419 ng/mL
- concentration in plasma (Rat [13]; 3.5 h): 410 ng/mL
- concentration in plasma (Mouse [14]; 5 min): 6550 ng/mL
- concentration in plasma (Mouse [14]; 0.25 h): 8220 ng/mL
- concentration in plasma (Mouse [14]; 0.5 h): 6040 ng/mL
- concentration in plasma (Mouse [14]; 1 h): 3120 ng/mL
- concentration in plasma (Mouse [14]; 2.5 h): 266 ng/mL
- concentration in plasma (Mouse [14]; 3 h): 1250 ng/mL
- concentration in plasma (Mouse [15]; 2.5 min): 7760 ng/mL
- concentration in plasma (Mouse [15]; 5 min): 6530 ng/mL
- concentration in plasma (Mouse [15]; 10 min): 9300 ng/mL
- concentration in plasma (Mouse [15]; 0.25 h): 7400 ng/mL
- concentration in plasma (Mouse [15]; 0.5 h): 5390 ng/mL
- concentration in plasma (Mouse [15]; 1 h): 5370 ng/mL
- concentration in plasma (Mouse [15]; 2 h): 1290 ng/mL
- concentration in plasma (Mouse [15]; 2.5 h): 211 ng/mL
- concentration in plasma (Mouse [15]; 3 h): 248 ng/mL

Next, values leading:

- concentration in plasma (Rat [10]; 5 min): 28900 ng/mL
- concentration in plasma (Rat [10]; 3 h): 158 ng/mL
- concentration in plasma (Rat [11]; 0.5 h): 4010 ng/mL
- concentration in plasma (Rat [11]; 0.75 h): 2000 ng/mL
- concentration in plasma (Rat [12]; 20 min): 53.8 ng/mL
- concentration in plasma (Rat [12]; 5 h): 7.02 ng/mL
SMILES: C=CCc1ccc(OC)c(OC)c1 [Methyleugenol]

- concentration in plasma (Rat [16]): 58400 ng/mL
- concentration in plasma (Rat [17]): 59300 ng/mL
SMILES: CCC1(c2ccccc2)C(=O)NCNC1=O [Primidone]
